According to BindingDB's records for doi:10.1021/acschembio.6b00250 (Chinese Academy of Sciences, 2016):

Legend:
Assay in all cases: Invitrogen SelectScreen Enzymatic Assay
[1] = target: Phosphatidylinositol 3-kinase catalytic subunit type 3 (Homo sapiens, UniProt Q8NEB9)
Protocol: (§1) The enzymatic assay was performed using the LifeTechnology SelectScreen.

[2] = target: Phosphatidylinositol 4,5-bisphosphate 3-kinase catalytic subunit gamma isoform (Homo sapiens, UniProt P48736)
Protocol: as §1

[3] = target: Phosphatidylinositol 4-phosphate 3-kinase C2 domain-containing subunit alpha (Homo sapiens, UniProt O00443)
Protocol: as §1

[4] = target: Phosphatidylinositol 3-kinase regulatory subunit alpha/4,5-bisphosphate 3-kinase catalytic subunit delta isoform (Homo sapiens, UniProt O00329)
Protocol: as §1

[5] = target: Phosphatidylinositol 3-kinase regulatory subunit alpha/4,5-bisphosphate 3-kinase catalytic subunit alpha isoform (Homo sapiens, UniProt P42336)
Protocol: as §1

[6] = target: Phosphatidylinositol 4-kinase alpha (Homo sapiens, UniProt P42356)
Protocol: as §1

[7] = target: Phosphatidylinositol 4-kinase beta (Homo sapiens, UniProt Q9UBF8)
Protocol: as §1

[8] = target: Phosphatidylinositol 4-phosphate 3-kinase C2 domain-containing subunit beta (Homo sapiens, UniProt O00750)
Protocol: as §1

[9] = target: Serine/threonine-protein kinase 16 (Homo sapiens, UniProt O75716)
Protocol: as §1

Chain of Phosphatidylinositol 4-kinase beta (Q9UBF8 whole entry): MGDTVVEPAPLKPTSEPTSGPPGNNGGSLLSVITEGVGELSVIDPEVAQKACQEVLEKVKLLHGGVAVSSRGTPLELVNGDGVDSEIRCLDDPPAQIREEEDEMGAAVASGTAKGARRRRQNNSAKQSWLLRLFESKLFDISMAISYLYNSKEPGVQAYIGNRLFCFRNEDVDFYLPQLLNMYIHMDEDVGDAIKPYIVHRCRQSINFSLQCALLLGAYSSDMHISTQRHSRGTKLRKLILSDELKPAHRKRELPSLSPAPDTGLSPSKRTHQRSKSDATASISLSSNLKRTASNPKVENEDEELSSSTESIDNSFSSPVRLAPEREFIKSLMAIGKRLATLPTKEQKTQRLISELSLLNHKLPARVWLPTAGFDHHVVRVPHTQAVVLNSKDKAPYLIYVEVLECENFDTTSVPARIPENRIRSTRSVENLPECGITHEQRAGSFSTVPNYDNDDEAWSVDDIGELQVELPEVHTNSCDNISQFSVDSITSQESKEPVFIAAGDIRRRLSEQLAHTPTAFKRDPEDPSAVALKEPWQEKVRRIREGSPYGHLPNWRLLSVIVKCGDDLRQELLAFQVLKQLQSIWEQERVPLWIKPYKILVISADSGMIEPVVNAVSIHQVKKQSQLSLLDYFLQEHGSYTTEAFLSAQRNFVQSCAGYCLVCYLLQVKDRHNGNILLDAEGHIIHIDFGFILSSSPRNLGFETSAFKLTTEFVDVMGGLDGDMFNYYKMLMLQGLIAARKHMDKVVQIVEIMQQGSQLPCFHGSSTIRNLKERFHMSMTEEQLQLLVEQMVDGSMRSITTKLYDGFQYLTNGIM
Chain of Phosphatidylinositol 3-kinase catalytic subunit type 3 (Q8NEB9 whole entry): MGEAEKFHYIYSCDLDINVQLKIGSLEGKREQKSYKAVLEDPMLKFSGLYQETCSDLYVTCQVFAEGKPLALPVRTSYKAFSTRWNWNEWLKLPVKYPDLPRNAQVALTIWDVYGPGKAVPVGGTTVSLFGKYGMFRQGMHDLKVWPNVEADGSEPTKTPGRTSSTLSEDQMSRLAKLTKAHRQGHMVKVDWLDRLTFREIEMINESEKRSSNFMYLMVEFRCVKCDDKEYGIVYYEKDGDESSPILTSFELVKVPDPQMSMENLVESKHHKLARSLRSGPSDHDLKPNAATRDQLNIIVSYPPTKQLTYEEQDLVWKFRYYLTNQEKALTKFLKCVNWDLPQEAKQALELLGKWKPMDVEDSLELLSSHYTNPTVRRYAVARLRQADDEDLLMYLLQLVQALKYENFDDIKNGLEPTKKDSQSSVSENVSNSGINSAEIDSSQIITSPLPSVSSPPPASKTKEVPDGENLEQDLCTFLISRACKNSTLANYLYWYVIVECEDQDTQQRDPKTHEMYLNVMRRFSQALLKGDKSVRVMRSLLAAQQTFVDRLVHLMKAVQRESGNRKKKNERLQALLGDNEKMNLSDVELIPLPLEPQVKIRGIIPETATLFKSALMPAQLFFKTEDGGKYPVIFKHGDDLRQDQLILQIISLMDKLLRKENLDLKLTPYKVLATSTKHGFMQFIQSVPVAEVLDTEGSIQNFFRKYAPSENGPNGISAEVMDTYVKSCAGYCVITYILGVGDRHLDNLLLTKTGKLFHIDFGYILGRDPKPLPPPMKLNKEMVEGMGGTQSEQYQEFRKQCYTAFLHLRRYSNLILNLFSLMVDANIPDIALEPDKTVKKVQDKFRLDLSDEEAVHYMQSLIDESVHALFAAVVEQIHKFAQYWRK
Chain of Serine/threonine-protein kinase 16 (O75716 whole entry): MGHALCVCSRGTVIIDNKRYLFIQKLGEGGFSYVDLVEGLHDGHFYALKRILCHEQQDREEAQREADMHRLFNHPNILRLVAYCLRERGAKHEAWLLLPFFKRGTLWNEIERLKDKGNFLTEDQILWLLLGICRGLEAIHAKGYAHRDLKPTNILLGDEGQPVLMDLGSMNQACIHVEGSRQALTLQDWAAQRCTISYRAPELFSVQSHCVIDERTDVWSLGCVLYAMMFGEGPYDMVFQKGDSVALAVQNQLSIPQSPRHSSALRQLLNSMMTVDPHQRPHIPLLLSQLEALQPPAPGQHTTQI
Chain of Phosphatidylinositol 4-phosphate 3-kinase C2 domain-containing subunit beta (O00750 whole entry, the tested form may be a part): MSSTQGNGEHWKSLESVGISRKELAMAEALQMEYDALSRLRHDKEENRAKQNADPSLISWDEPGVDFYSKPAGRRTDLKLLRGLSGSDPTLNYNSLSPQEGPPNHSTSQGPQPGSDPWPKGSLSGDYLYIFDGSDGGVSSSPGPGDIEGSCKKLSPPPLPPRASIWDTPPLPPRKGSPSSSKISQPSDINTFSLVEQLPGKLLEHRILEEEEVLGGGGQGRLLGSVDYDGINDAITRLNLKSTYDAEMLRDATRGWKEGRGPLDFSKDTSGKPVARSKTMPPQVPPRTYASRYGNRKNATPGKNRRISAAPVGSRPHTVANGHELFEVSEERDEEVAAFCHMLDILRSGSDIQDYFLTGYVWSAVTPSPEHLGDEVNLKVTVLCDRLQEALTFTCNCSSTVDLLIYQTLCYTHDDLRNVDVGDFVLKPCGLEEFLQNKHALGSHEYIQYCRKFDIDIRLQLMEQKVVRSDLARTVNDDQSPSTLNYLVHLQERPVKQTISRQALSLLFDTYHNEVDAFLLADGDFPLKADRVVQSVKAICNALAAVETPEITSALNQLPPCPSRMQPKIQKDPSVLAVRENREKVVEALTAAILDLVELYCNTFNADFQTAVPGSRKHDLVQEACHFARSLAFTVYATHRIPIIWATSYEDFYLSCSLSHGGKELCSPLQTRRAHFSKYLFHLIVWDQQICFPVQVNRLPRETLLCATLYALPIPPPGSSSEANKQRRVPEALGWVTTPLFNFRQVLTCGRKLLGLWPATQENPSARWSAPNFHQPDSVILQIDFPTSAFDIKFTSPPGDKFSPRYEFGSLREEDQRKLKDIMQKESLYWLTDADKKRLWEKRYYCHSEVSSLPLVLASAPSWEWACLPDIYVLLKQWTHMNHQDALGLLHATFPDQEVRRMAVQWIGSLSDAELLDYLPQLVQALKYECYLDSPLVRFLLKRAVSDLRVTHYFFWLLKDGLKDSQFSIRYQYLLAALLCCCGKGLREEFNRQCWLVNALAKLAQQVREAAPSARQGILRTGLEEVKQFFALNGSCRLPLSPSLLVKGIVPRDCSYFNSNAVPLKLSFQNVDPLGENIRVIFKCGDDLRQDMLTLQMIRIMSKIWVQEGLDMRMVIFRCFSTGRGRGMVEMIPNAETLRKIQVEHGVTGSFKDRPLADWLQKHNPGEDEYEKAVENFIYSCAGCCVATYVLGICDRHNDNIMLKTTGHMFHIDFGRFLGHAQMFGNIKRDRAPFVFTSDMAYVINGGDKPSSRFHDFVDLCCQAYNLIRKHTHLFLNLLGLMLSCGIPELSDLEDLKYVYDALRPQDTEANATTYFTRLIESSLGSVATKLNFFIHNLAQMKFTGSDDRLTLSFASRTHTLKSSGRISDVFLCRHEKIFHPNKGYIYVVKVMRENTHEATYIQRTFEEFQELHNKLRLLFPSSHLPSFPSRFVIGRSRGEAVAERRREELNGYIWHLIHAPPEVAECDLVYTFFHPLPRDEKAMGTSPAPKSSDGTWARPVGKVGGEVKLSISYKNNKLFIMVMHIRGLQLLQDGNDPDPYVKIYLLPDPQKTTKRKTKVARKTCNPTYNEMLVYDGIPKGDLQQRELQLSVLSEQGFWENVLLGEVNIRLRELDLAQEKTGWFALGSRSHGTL
Chain of Phosphatidylinositol 4,5-bisphosphate 3-kinase catalytic subunit gamma isoform (P48736 whole entry, canonical isoform): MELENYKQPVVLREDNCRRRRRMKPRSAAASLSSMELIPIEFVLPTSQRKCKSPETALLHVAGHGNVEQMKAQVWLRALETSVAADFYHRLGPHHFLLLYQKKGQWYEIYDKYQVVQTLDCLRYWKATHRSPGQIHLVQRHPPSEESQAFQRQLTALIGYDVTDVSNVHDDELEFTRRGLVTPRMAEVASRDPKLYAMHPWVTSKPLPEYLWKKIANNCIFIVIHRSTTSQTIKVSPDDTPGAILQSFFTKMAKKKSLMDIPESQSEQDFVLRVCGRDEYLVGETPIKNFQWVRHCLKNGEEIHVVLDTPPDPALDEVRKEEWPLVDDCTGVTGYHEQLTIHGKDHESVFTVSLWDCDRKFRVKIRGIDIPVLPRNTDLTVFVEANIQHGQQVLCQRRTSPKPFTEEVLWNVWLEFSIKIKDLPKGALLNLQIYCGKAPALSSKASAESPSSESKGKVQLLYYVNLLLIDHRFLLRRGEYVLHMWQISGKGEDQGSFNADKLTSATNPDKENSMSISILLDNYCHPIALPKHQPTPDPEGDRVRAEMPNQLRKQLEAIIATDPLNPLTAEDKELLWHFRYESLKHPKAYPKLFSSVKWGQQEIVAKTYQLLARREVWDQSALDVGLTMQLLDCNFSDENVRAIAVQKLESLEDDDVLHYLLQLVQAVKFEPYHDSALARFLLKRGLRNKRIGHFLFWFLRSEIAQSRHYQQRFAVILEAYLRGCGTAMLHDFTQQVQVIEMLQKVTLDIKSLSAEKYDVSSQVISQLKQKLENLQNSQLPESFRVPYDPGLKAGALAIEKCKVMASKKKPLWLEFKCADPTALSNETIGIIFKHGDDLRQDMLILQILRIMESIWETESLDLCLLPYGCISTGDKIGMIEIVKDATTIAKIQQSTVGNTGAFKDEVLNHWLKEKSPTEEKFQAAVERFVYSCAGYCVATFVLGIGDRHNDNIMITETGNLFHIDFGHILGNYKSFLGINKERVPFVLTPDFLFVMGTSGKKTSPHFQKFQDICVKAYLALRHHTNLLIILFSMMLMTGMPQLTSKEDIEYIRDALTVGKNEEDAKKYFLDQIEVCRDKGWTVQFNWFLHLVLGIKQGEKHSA

Q: What does the source list for O=c1ccc2cnc3[nH]ccc3c2n1-c1ccc(F)c(O)c1 [STK16-IN-1]?
A: IC50 [1]: 7940 nM; IC50 [2]: 867 nM; IC50 [3]: 4860 nM; IC50 [4]: 856 nM; IC50 [5]: 1070 nM; IC50 [6]: > 10000 nM; IC50 [7]: > 10000 nM; IC50 [8]: 9330 nM; IC50 [9]: 295 nM
